Measurements from patent US20120053053A1, “PYRIMIDINE DERIVATIVES AND THEIR USE AS HERBICIDES” (SYNGENTA CROP PROTECTION, LLC, priority 2009, published 2012).
Values joined by “and” are separate entries in the source; they are usually repeats but may differ in a detail not shown here. Equal entries are not always repeated.

Tests used:
Type in all cases: in vivo
Conditions in all cases: dose 1,000 g/ha, evaluated after 13 days, 100=total damage, 0=no damage
Solanum nigrum (SOLNI) [1] = assay: Pre-emergence biological efficacy (percentage damage)
Experimental: (§1) Seeds of Alopecurus myosuroides (ALOMY), Setaria faberi (SETFA), Echinochloa crus-galli (ECHCG), Solanum nigrum (SOLNI), Amaranthus retoflexus (AMARE) and Ipomea hederaceae (IPOHE) were sown in standard soil in pots. After cultivation for one day under controlled conditions in a glasshouse (at 24/16° C., day/night; 14 hours light; 65% humidity), the plants were sprayed with an aqueous spray solution derived from the formulation of the technical active ingredient in acetone/water (50:50) solution containing 0.5% Tween 20 (polyoxyethylene sorbitan monolaurate, CAS RN 9005-64-5) to give a final dose of 250 or 1000 g/ha of test compound. The test plants were then grown under controlled conditions in the glasshouse (at 24/16° C., day/night; 14 hours light; 65% humidity) and watered twice daily. After 13 days the test was evaluated (100=total damage to plant; 0=no damage to plant).

[2] = system: Ipomea hederaceae (IPOHE); assay: as above
Experimental: as §1

[3] = system: Alopecurus myosuroides (ALOMY); assay: as above
Experimental: as §1

[4] = system: Amaranthus retoflexus (AMARE); assay: as above
Experimental: as §1

Setaria faberi (SETFA) [5] = assay: as above
Experimental: as §1

[6] = system: Echinochloa crus-galli (ECHCG); assay: as above
Experimental: as §1

Solanum nigrum (SOLNI) [7] = assay: Post-emergence biological efficacy (percentage damage)
Experimental: as §1, with “for 8 days” for “for one day”, “grown on” for “grown”, “in a” for “in the”

[8] = system: Ipomea hederaceae (IPOHE); assay: as above
Experimental: as §1, with “for 8 days” for “for one day”, “grown on” for “grown”, “in a” for “in the”

[9] = system: Alopecurus myosuroides (ALOMY); assay: as above
Experimental: as §1, with “for 8 days” for “for one day”, “grown on” for “grown”, “in a” for “in the”

[10] = system: Amaranthus retoflexus (AMARE); assay: as above
Experimental: as §1, with “for 8 days” for “for one day”, “grown on” for “grown”, “in a” for “in the”

Setaria faberi (SETFA) [11] = assay: as above
Experimental: as §1, with “for 8 days” for “for one day”, “grown on” for “grown”, “in a” for “in the”

[12] = system: Echinochloa crus-galli (ECHCG); assay: as above
Experimental: as §1, with “for 8 days” for “for one day”, “grown on” for “grown”, “in a” for “in the”

Row | SMILES | Percentage damage SOLNI, pre-emergence (Solanum nigrum (SOLNI) [1]) [%] | Percentage damage IPOHE, pre-emergence [2] [%] | Percentage damage ALOMY, pre-emergence [3] [%] | Percentage damage AMARE, pre-emergence [4] [%] | Percentage damage SETFA, pre-emergence (Setaria faberi (SETFA) [5]) [%] | Percentage damage ECHCG, pre-emergence [6] [%] | Percentage damage SOLNI, post-emergence (Solanum nigrum (SOLNI) [7]) [%] | Percentage damage IPOHE, post-emergence [8] | Percentage damage ALOMY, post-emergence [9] | Percentage damage AMARE, post-emergence [10] [%] | Percentage damage SETFA, post-emergence (Setaria faberi (SETFA) [11]) | Percentage damage ECHCG, post-emergence [12]
1 | C/C=C/c1c(N)nc(C2CC2)nc1C(=O)OC [2-62 (E)] | 70 | 30 | 10 | 40 | 0 | 10 | 70 | 50% | 10% | 40 | 20% | 10%
2 | C/C=C\c1c(N)nc(C2CC2)nc1C(=O)OC [2-62 (Z)] | 100 | 100 | 20 | 90 | 20 | 10 | 70 | 100% | 10% | 70 | 30% | 10%
3 | C/C=C/c1c(N)nc(-c2ccc(Cl)c(OC)c2F)nc1C(=O)OC [27-62 (E)] | 80 | 90 | 90 | 50 | 80 | 90 | 100 | 90% | 90% | 100 | 100% | 100%
4 | C/C=C\c1c(N)nc(-c2ccc(Cl)c(OC)c2F)nc1C(=O)OC [27-62 (Z)] | 100 | 100 | 80 | 100 | 80 | 90 | 80 | 100% | 70% | 100 | 90% | 80%
5 | C/C=C/c1c(N)nc(-c2ccc(Cl)c(N(C)C)c2F)nc1C(=O)OC [33-62 (E)] | 80 | 0 | 70 | 100 | 80 | 90 |  |  |  |  |  | 
6 | C/C=C\c1c(N)nc(-c2ccc(Cl)c(N(C)C)c2F)nc1C(=O)OC [33-62 (Z)] | 60 | 20 | 30 | 70 | 30 | 30 | 80 | 40% and 30% | 80% and 60% | 100 | 80% and 70% | 80% and 70%
